Literature values, collected in US20190030061A1, “COBALAMIN COMPOSITIONS AND USE THEREOF FOR IMPROVING COGNITIVE FUNCTION” (NOVA SOUTHEASTERN UNIVERSITY, priority 2016, published 2019).

Tested on: neuronal cells

Row | Substance | GSH levels | cysteine uptake
1 | Amyloid Beta | decrease | decrease
2 | IGF1: insulin-like growth factor 1 | increased | stimulates
